2 compounds from patent US8722687B2, “Imidazo [1,2-A]pyridine derivatives as FGFR kinase inhibitors for use in therapy” (Astex Therapeutics Ltd, priority 2009, dated 2014) can be followed below.

A value given as a limit tells only on which side of the number the result lay.

Test [1] deals with T1, Ba/F3-Flt3 cells (Homo sapiens, UniProt P36888, cells depend on it, form not given).
T1 construct: Ba/F3-flt3 − IL3 pIC50; other: without IL3
T1 sequence (P36888 1-993): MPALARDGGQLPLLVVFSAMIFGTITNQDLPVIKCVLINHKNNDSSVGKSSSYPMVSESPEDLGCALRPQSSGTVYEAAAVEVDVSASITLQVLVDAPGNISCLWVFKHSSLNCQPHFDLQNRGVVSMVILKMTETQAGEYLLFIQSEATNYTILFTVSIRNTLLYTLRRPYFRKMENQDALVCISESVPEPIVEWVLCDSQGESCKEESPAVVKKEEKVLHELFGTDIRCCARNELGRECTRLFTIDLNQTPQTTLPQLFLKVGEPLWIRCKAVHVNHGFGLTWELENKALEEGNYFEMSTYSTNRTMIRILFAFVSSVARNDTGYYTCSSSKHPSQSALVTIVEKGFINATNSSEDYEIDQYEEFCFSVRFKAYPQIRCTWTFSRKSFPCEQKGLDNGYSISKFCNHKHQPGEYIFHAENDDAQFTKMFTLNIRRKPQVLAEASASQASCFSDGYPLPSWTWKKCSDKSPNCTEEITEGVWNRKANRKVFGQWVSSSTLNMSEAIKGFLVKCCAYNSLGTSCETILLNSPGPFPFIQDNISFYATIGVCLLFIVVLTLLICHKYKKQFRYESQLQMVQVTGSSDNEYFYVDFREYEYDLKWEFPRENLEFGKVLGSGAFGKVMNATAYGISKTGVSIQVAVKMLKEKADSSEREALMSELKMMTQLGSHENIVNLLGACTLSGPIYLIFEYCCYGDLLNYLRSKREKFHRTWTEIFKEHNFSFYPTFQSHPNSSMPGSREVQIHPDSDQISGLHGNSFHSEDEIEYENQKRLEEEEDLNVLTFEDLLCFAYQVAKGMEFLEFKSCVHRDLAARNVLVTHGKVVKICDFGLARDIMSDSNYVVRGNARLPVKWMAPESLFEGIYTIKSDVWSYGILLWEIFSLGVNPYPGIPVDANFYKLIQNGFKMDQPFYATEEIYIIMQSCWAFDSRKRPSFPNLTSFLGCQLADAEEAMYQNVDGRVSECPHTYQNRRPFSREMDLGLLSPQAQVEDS
Description: Ba/F3-Flt3 assay (Alamar Blue). The format is cell-based, murine. Conditions: without IL3. From the text:
(§1) Ba/F3, a murine interleukin-3 dependent pro-B cell line is increasingly popular as a model system for assessing both the potency and downstream signaling of kinase oncogenes, and the ability of small-molecule kinase inhibitors to block kinase activity. Facilitated by their growth properties. Ba/F3 cells have recently been adapted to high throughput assay formats for compound profiling. Further, several published approaches show promise in predicting resistance to small-molecule kinase inhibitors elicited by point mutations interfering with inhibitor binding (Ba/F3 cells and their use in kinase drug discovery; Markus Warmuth, Sungjoon Kim, Xiang-ju Gu, Gang Xia and Francisco Adria'n; Curr Opin Oncol 19:55-60).
(§2) Ba/F3-Flt3 cells (cultured in phenol red free RPMI-1640, 10% A FCS and 50 μg/ml Gentamycin at 37° C. and 5% 002) were plated at a density of 10000 cells in a total volume of 180 μl medium in a black TC-treated sterile 96-well plate (Corning). After 24 hours, drugs in different dilutions were added to a final volume of 200 μl and at a final DMSO concentration of 0.2% prior to incubation at 37° C., and 5% CO2.
(§3) After 24 h, to each well 40 μl Alamar Blue solution (Aldrich) was added and the cells were further incubated for 4 hours at 37° C. Fluorescence (ex. 544, em. 590 nm) was measured using a fluorescence reader (Labsystems) and IC50's were calculated.
(§4) In the condition containing IL3, 10 ng/ml of murine IL3 (PeproTech) was added during compound incubation.

Test [2] concerns Ba/F3-Flt3 cells. Description: Ba/F3-Flt3 assay (Alamar Blue). Conditions: Mus musculus, 24 h; with 10 ng/ml murine IL3; read-out: Ba/F3-flt3 + IL3 pIC50 (converted). The format is cell-based, murine.
From the text: as §1, §2, §3, §4

Take `Cc1cn(-c2ccn3c(-c4cc(NC(=O)NCC(F)(F)F)cc(OC(C)C)c4)cnc3c2)cn1` [Compound F-28, 1-{3-Isopropoxy-5-[7-(4-methylimidazol-1-yl)-imidazo[1,2-a]pyridin-3-yl]-phenyl}-3-(2,2,2-trifluoro-ethyl)-urea]: the “Ba/F3-flt3 − IL3 pIC50” value at Ba/F3-Flt3 cells [1] is <5. Besides, the IC50 with Ba/F3-Flt3 cells [2] was > 10 µM.

Regarding `CC(C)Oc1cc(NC(=O)NCC(F)(F)F)cc(-c2cnc3cc(-c4nccc(C(C)C)n4)ccn23)c1` [Compound F-29, 1-{3-Isopropoxy-5-[7-(4-isopropyl-pyrimidin-2-yl)-imidazo[1,2-a]pyridin-3-yl]-phenyl}-3-(2,2,2-trifluoroethyl)-urea], the “Ba/F3-flt3 − IL3 pIC50” value on Ba/F3-Flt3 cells [1] is <5. For the same compound, the IC50 in the test with Ba/F3-Flt3 cells [2] was > 10 µM.
